For 16 molecules, IC50 results are on record in patent US20230174530A1, “N-(PHENYLAMINOCARBONYL) TETRAHYDRO-ISOQUINOLINES AND RELATED COMPOUNDS AS MODULATORS OF GPR65” (PATHIOS THERAPEUTICS LIMITED, priority 2020, published 2023).

Broadly, the IC50 is the concentration that gives 50% inhibition.

T1 sequence (Q8IYL9 whole entry): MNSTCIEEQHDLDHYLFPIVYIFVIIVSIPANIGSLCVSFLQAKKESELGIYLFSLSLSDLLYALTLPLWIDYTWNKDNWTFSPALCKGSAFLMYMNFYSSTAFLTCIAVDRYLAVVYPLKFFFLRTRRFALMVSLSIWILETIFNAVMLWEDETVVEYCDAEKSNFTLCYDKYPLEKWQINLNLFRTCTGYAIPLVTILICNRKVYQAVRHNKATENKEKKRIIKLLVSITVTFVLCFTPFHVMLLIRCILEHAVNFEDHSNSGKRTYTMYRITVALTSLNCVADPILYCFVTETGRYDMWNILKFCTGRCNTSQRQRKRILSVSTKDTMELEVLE

This test concerns the target T1, human recombinant GPR65 (Homo sapiens, UniProt Q8IYL9).
T1 construct: host or cells: 1321N1 human astrocytoma cells (1321N1-hrGPR65)
Description: Human GPR65 cAMP HTRF antagonist assay. Format: cell-based. The note with it: 1321N1-hrGPR65 cells stimulated at assay pH 7.2; suppression of cAMP rise; read-out: hGPR65 IC50. Here is the method: Human GPR65 Cyclic Adenosine Monophosphate (cAMP) Homogeneous Time Resolved Fluorescence (HTRF) Antagonist Assay Procedure
IC50 data was obtained by the following procedure:
1321N1 human astrocytoma cells stably expressing human recombinant GPR65 (1321N1-hrGPR65 cells, EuroscreenFast) were cultured according to the vendor's instructions.
Compounds were tested for their ability to antagonise GPR65, through measuring the concentration of cytoplasmic cAMP following treatment of the cells at a pH of 7.2 to activate GPR65 signalling and addition of the compound to be tested. The extent to which the expected rise in cAMP concentration upon GPR65 activation was suppressed by the added compound is indicative of its potency. The assay was carried out according to EuroscreenFast assay methodology as follows.
On the day of the assay, test compounds were added to 384-well, low volume, white microtiter plates by acoustic dispensing. KRH buffer (5 mM KCl, 1.25 mM MgSO4, 124 mM NaCl, 25 mM HEPES, 13.3 mM Glucose, 1.25 mM KH2PO4 and 1.45 mM CaCl2) was adjusted to pH 6.5, pH 7.6 and pH 8.4 by adding NaOH. 1321N1-hGPR65 cells were rapidly thawed and diluted in KRH, pH 7.6 prior to centrifugation at 300×g for 5 min and resuspension in assay buffer (KRH, pH 7.6, supplemented with 1 mM 3-isobutyl-1-methylxanthine (IBMX) and 200 μM ethylenediaminetetraacetic acid (EDTA)). Cells were added to assay plates at a density of 2,000 cells per well in a volume of 5 μl. Assay plates were briefly centrifuged at 100×g and then incubated at room temperature for 30 min. Cells were stimulated by the addition of 5 μL KRH, pH 6.5, to achieve an assay pH of 7.2, while control wells received 5 μl KRH, pH 8.4 to achieve an assay pH of 7.9. Assay plates were briefly centrifuged at 100×g and then incubated at room temperature for 30 min.
Accumulation of cAMP was detected by cAMP HTRF kit (Cisbio). d2-labeled cAMP and cryptate-labeled anti-cAMP antibody in Lysis and Detection Buffer (Cisbio) were added to assay plates, and the plates were incubated at room temperature for 1 h. HTRF measurements were performed using a Pherastar FSX instrument. Acceptor and donor emission signals were measured at 665 nm and 620 nm, respectively, and HTRF ratios were calculated as signal665 nm/signal620 nm×10^4. Data were normalised to high and low control values and fitted with 4-parameter logistic regression to determine hGPR65 IC50 values for the test compounds, which are shown in Table 1.
(In general: TR-FRET usually uses a lanthanide donor and a delayed reading to cut background.)
Regarding `O=C(Nc1ccc(Cl)c(Cl)c1)N1CCc2cccc(F)c2C1` [Compound 45, N-(3,4-Dichlorophenyl)-8-fluoro-3,4-dihydroisoquinoline-2(1H)-carboxamide], the IC50 was in the range of 0.5 to 5 µM.

In the case of `Cc1cccc2c1CCN(C(=O)Nc1ccc(Cl)c(Cl)c1)C2` [Compound 58, N-(3,4-Dichlorophenyl)-5-methyl-3,4-dihydroisoquinoline-2(1H)-carboxamide], the IC50 is 0.5 to 5 µM.

As for `COc1ccc2c(c1)CCN(C(=O)Nc1ccc(Cl)c(C(F)(F)F)c1)C2` [Compound 66, N-(4-Chloro-3-(trifluoromethyl)phenyl)-6-methoxy-3,4-dihydroisoquinoline-2(1H)-carboxamide], the IC50 was in the range of 0.5 to 5 µM.

Turning to `O=C(Nc1ccc(Cl)c(Cl)c1)N1CCc2cn3cnnc3cc2C1` [Compound 116, N-(3,4-Dichlorophenyl)-6,7-dihydro-[1,2,4]triazolo[4,3-b][2,6]naphthyridine-8(9H)-carboxamide], the IC50 is greater than 5 µM.

`O=C(Nc1ccc(Cl)c(Cl)c1)N1CCc2cccnc2C1` [Compound 18, N-(3,4-Dichlorophenyl)-5,8-dihydro-1,7-naphthyridine-7(6H)-carboxamide]: the IC50 is greater than 5 µM.

On to `N#Cc1ccc2c(c1)CN(C(=O)Nc1ccc(Cl)c(Cl)c1)CC2` [Compound 49, 7-Cyano-N-(3,4-dichlorophenyl)-3,4-dihydroisoquinoline-2(1H)-carboxamide], for which the IC50 lay within 0.5 to 5 µM.

`O=C(Nc1ccc(C(F)(F)F)c(Cl)c1)N1CCc2cc(F)ccc2C1` [Compound 44, N-(3-Chloro-4-(trifluoromethyl)phenyl)-6-fluoro-3,4-dihydroisoquinoline-2(1H)-carboxamide]: the IC50 was less than 0.5 µM.

Consider `O=C(Nc1ccc(C(F)(F)F)c(Cl)c1)N1CCc2nccnc2C1` [Compound 24, N-(3-Chloro-4-(trifluoromethyl)phenyl)-7,8-dihydropyrido[3,4-b]pyrazine-6(5H)-carboxamide], for which the IC50 is greater than 5 µM.

In the case of `O=C(Nc1ccc(Cl)c(Cl)c1)N1CCc2c[nH]c(=O)cc2C1` [Compound 99, N-(3,4-Dichlorophenyl)-7-oxo-3,4,6,7-tetrahydro-2,6-naphthyridine-2(1H)-carboxamide], the IC50 was greater than 5 µM.

Take `O=C(Nc1ccc(C(F)(F)F)c(Cl)c1)N1CCc2cc(Cl)ncc2C1` [Compound 91, 6-Chloro-N-(3-chloro-4-(trifluoromethyl)phenyl)-3,4-dihydro-2,7-naphthyridine-2(1H)-carboxamide]: the IC50 lay within 0.5 to 5 µM.

For the molecule `Nc1ccc2c(n1)CCN(C(=O)Nc1ccc(Cl)c(Cl)c1)C2` [Compound 122, 2-Amino-N-(3,4-dichlorophenyl)-7,8-dihydro-1,6-naphthyridine-6(5H)-carboxamide], the IC50 was greater than 5 µM.

Consider `O=C(Nc1cc(Cl)c(Cl)cc1C(F)(F)F)N1CCc2cc(=O)[nH]cc2C1` [Compound 130, N-(4,5-Dichloro-2-(trifluoromethyl)phenyl)-6-oxo-3,4,6,7-tetrahydro-2,7-naphthyridine-2(1H)-carboxamide], for which the IC50 is greater than 5 µM.

For the molecule `O=C(Nc1ccc(C(F)(F)F)c(Cl)c1)N1CCc2cncnc2C1` [Compound 9, N-(3-Chloro-4-(trifluoromethyl)phenyl)-5,8-dihydropyrido[3,4-d]pyrimidine-7(6H)-carboxamide], the IC50 is greater than 5 µM.

`COc1cccc2c1CN(C(=O)Nc1ccc(Cl)c(Cl)c1)CC2` [Compound 64, N-(3,4-Dichlorophenyl)-8-methoxy-3,4-dihydroisoquinoline-2(1H)-carboxamide]: the IC50 was in the range of 0.5 to 5 µM.

`O=C(Nc1ccc(C(F)(F)F)c(Cl)c1)N1CCc2cc[n+]([O-])cc2C1` [Compound 94, 7-((3-Chloro-4-(trifluoromethyl)phenyl)carbamoyl)-5,6,7,8-tetrahydro-2,7-naphthyridine 2-oxide]: the IC50 was greater than 5 µM.

Take `Cc1cccc2c1CN(C(=O)Nc1ccc(C(F)(F)F)c(Cl)c1)CC2` [Compound 29, N-(3-Chloro-4-(trifluoromethyl)phenyl)-8-methyl-3,4-dihydroisoquinoline-2(1H)-carboxamide]: the half-maximal inhibitory concentration (IC50) was 0.5 to 5 µM.
